Values after ≈ are worked out from the molar mass of the structure shown. Where two headings read alike, the source gives them in different places.
Key:
[1] = test system: Klebsiella pneumoniae PCI-602; assay: Antibacterial spectrum, MIC by twofold agar dilution method; type: cell-based; conditions: PCI602, 10^6 cfu/ml, standard laboratory strain, Gram -, 18 hrs at 37° C, read-out: MIC
Procedure: (§1) Minimum inhibitory concentrations (MIC) of test compounds were determined by the twofold agar dilution method (Chemotherapy, 29(1), 76(1981)). Overnight cultures in Mueller-Hinton broth were suspended by buffered saline gelatin. One loopful of the bacterial suspension (10^6 or 10^8 colony-forming units/ml) was incubated onto the plates containing test compounds. The plates were incubated for 18 hrs at 37° C. The MIC was defined by the lowest concentration of the drug that inhibited visible growth of bacteria.

[2] = test system: Klebsiella pneumoniae HNR 869; assay: as above; type: cell-based; conditions: HNR869, 10^6 cfu/ml, clinically isolated strain, Gram -, 18 hrs at 37° C
Procedure: as §1, with “Overnight” for “Minimum inhibitory concentrations (MIC) of test compounds were determined by the twofold agar dilution method (Chemotherapy, 29(1), 76(1981)). Overnight”

[3] = test system: Klebsiella pneumoniae HNR 828; assay: as above; type: cell-based; conditions: HNR828, 10^6 cfu/ml, clinically isolated strain, Gram -, 18 hrs at 37° C
Procedure: as §1, with “Overnight” for “Minimum inhibitory concentrations (MIC) of test compounds were determined by the twofold agar dilution method (Chemotherapy, 29(1), 76(1981)). Overnight”

[4] = test system: Acinetobacter calcoaceticus HNR 939; assay: as above; type: cell-based; conditions: HNR939, 10^6 cfu/ml, clinically isolated strain, Gram -, 18 hrs at 37° C
Procedure: as §1, with “Overnight” for “Minimum inhibitory concentrations (MIC) of test compounds were determined by the twofold agar dilution method (Chemotherapy, 29(1), 76(1981)). Overnight”

[5] = test system: Enterobacter cloacae HNR 1939; assay: as above; type: cell-based; conditions: HNR1939, 10^6 cfu/ml, clinically isolated strain, Gram -, 18 hrs at 37° C
Procedure: as §1, with “Overnight” for “Minimum inhibitory concentrations (MIC) of test compounds were determined by the twofold agar dilution method (Chemotherapy, 29(1), 76(1981)). Overnight”

[6] = test system: Acinetobacter calcoaceticus HNR 916; assay: as above; type: cell-based; conditions: HNR916, 10^6 cfu/ml, clinically isolated strain, Gram -, 18 hrs at 37° C
Procedure: as §1, with “Overnight” for “Minimum inhibitory concentrations (MIC) of test compounds were determined by the twofold agar dilution method (Chemotherapy, 29(1), 76(1981)). Overnight”

[7] = test system: Serratia marcescens HNR 1544; assay: as above; type: cell-based; conditions: HNR1544, 10^6 cfu/ml, clinically isolated strain, Gram -, 18 hrs at 37° C
Procedure: as §1, with “Overnight” for “Minimum inhibitory concentrations (MIC) of test compounds were determined by the twofold agar dilution method (Chemotherapy, 29(1), 76(1981)). Overnight”

[8] = test system: Pseudomonas aeruginosa HNR 1537; assay: as above; type: cell-based; conditions: HNR1537, 10^6 cfu/ml, clinically isolated strain, Gram -, 18 hrs at 37° C
Procedure: as §1, with “Overnight” for “Minimum inhibitory concentrations (MIC) of test compounds were determined by the twofold agar dilution method (Chemotherapy, 29(1), 76(1981)). Overnight”

[9] = test system: Pseudomonas aeruginosa HNR 1489; assay: as above; type: cell-based; conditions: HNR1489, 10^6 cfu/ml, clinically isolated strain, Gram -, 18 hrs at 37° C
Procedure: as §1, with “Overnight” for “Minimum inhibitory concentrations (MIC) of test compounds were determined by the twofold agar dilution method (Chemotherapy, 29(1), 76(1981)). Overnight”

[10] = test system: Pseudomonas aeruginosa HNR 1472; assay: as above; type: cell-based; conditions: HNR1472, 10^6 cfu/ml, clinically isolated strain, Gram -, 18 hrs at 37° C
Procedure: as §1, with “Overnight” for “Minimum inhibitory concentrations (MIC) of test compounds were determined by the twofold agar dilution method (Chemotherapy, 29(1), 76(1981)). Overnight”

[11] = test system: Enterobacter cloacae HNR 1941; assay: as above; type: cell-based; conditions: HNR1941, 10^6 cfu/ml, clinically isolated strain, Gram -, 18 hrs at 37° C
Procedure: as §1, with “Overnight” for “Minimum inhibitory concentrations (MIC) of test compounds were determined by the twofold agar dilution method (Chemotherapy, 29(1), 76(1981)). Overnight”

[12] = test system: Enterococcus faecalis HPC 975; assay: as above; type: cell-based; conditions: HPC975, 10^6 cfu/ml, clinically isolated strain, Gram +, 18 hrs at 37° C
Procedure: as §1, with “Overnight” for “Minimum inhibitory concentrations (MIC) of test compounds were determined by the twofold agar dilution method (Chemotherapy, 29(1), 76(1981)). Overnight”

[13] = test system: Enterobacter cloacae HNR 1946; assay: as above; type: cell-based; conditions: HNR1946, 10^6 cfu/ml, clinically isolated strain, Gram -, 18 hrs at 37° C
Procedure: as §1, with “Overnight” for “Minimum inhibitory concentrations (MIC) of test compounds were determined by the twofold agar dilution method (Chemotherapy, 29(1), 76(1981)). Overnight”

[14] = test system: Enterococcus faecalis HPC 984; assay: as above; type: cell-based; conditions: HPC984, 10^6 cfu/ml, clinically isolated strain, Gram +, 18 hrs at 37° C
Procedure: as §1, with “Overnight” for “Minimum inhibitory concentrations (MIC) of test compounds were determined by the twofold agar dilution method (Chemotherapy, 29(1), 76(1981)). Overnight”

[15] = test system: Enterococcus faecalis HPC 948; assay: as above; type: cell-based; conditions: HPC948, 10^6 cfu/ml, clinically isolated strain, Gram +, 18 hrs at 37° C
Procedure: as §1, with “Overnight” for “Minimum inhibitory concentrations (MIC) of test compounds were determined by the twofold agar dilution method (Chemotherapy, 29(1), 76(1981)). Overnight”

[16] = test system: Serratia marcescens HNR 1792; assay: as above; type: cell-based; conditions: HNR1792, 10^6 cfu/ml, clinically isolated strain, Gram -, 18 hrs at 37° C
Procedure: as §1, with “Overnight” for “Minimum inhibitory concentrations (MIC) of test compounds were determined by the twofold agar dilution method (Chemotherapy, 29(1), 76(1981)). Overnight”

[17] = test system: Staphylococuss aureus FDA 209PJC-1; assay: as above; type: cell-based; conditions: 10^6 cfu/ml; standard laboratory strain, Gram +; 18 hrs at 37° C
Procedure: as §1, with “Overnight” for “Minimum inhibitory concentrations (MIC) of test compounds were determined by the twofold agar dilution method (Chemotherapy, 29(1), 76(1981)). Overnight”

[18] = test system: Pseudomonas aeruginosa IFO 3445; assay: as above; type: cell-based; conditions: IFO3445, 10^6 cfu/ml, standard laboratory strain, Gram -, 18 hrs at 37° C
Procedure: as §1, with “Overnight” for “Minimum inhibitory concentrations (MIC) of test compounds were determined by the twofold agar dilution method (Chemotherapy, 29(1), 76(1981)). Overnight”

[19] = test system: Staphylococcuss aureus HPC 527; assay: as above; type: cell-based; conditions: 10^6 cfu/ml; clinically isolated strain, Gram +; 18 hrs at 37° C
Procedure: as §1, with “Overnight” for “Minimum inhibitory concentrations (MIC) of test compounds were determined by the twofold agar dilution method (Chemotherapy, 29(1), 76(1981)). Overnight”

[20] = test system: Enterobacter cloacae 963; assay: as above; type: cell-based; conditions: 10^6 cfu/ml, standard laboratory strain, Gram -, 18 hrs at 37° C
Procedure: as §1, with “Overnight” for “Minimum inhibitory concentrations (MIC) of test compounds were determined by the twofold agar dilution method (Chemotherapy, 29(1), 76(1981)). Overnight”

[21] = test system: Staphylococcuss aureus HPC 308; assay: as above; type: cell-based; conditions: 10^6 cfu/ml; clinically isolated strain, Gram +; 18 hrs at 37° C
Procedure: as §1, with “Overnight” for “Minimum inhibitory concentrations (MIC) of test compounds were determined by the twofold agar dilution method (Chemotherapy, 29(1), 76(1981)). Overnight”

[22] = test system: Staphylococcuss aureus HPC 292; assay: as above; type: cell-based
Procedure: as §1, with “Overnight” for “Minimum inhibitory concentrations (MIC) of test compounds were determined by the twofold agar dilution method (Chemotherapy, 29(1), 76(1981)). Overnight”

[23] = test system: Serratia marcescens IAM 1184; assay: as above; type: cell-based; conditions: IAM1184, 10^6 cfu/ml, standard laboratory strain, Gram -, 18 hrs at 37° C
Procedure: as §1, with “Overnight” for “Minimum inhibitory concentrations (MIC) of test compounds were determined by the twofold agar dilution method (Chemotherapy, 29(1), 76(1981)). Overnight”

[24] = test system: Escherichia coli NIHJ JC-2; assay: as above; type: cell-based; conditions: NIHJJC2, 10^6 cfu/ml, standard laboratory strain, Gram -, 18 hrs at 37° C
Procedure: as §1, with “Overnight” for “Minimum inhibitory concentrations (MIC) of test compounds were determined by the twofold agar dilution method (Chemotherapy, 29(1), 76(1981)). Overnight”

[25] = test system: Klebsiella pneumoniae HNR 858; assay: as above; type: cell-based; conditions: HNR858, 10^6 cfu/ml, clinically isolated strain, Gram -, 18 hrs at 37° C
Procedure: as §1, with “Overnight” for “Minimum inhibitory concentrations (MIC) of test compounds were determined by the twofold agar dilution method (Chemotherapy, 29(1), 76(1981)). Overnight”

[26] = test system: Acinetobacter calcoaceticus HNR 904; assay: as above; type: cell-based; conditions: HNR904, 10^6 cfu/ml, clinically isolated strain, Gram -, 18 hrs at 37° C
Procedure: as §1, with “Overnight” for “Minimum inhibitory concentrations (MIC) of test compounds were determined by the twofold agar dilution method (Chemotherapy, 29(1), 76(1981)). Overnight”

[27] = test system: Serratia marcescens HNR 1767; assay: as above; type: cell-based; conditions: HNR1767, 10^6 cfu/ml, clinically isolated strain, Gram -, 18 hrs at 37° C
Procedure: as §1, with “Overnight” for “Minimum inhibitory concentrations (MIC) of test compounds were determined by the twofold agar dilution method (Chemotherapy, 29(1), 76(1981)). Overnight”

[28] = test system: Male mice of ddY strain; assay: Convulsion inducing activity in combination with fenbufen; conditions: 30 min after fenbufen 100 mg/kg orally
Procedure: Male mice of ddY strain, 5 weeks old, were used. Fenbufen suspended in 0.5% carboxymethyl cellulose was administered orally at a dose of 100 mg/kg. After thirty minutes, test compounds suspended in 0.5% carboxymethyl cellulose were injected intraperitoneally (i.p.) at a dose of 100 mg/kg or 300 mg/kg.

SMILES	MIC [1]	MIC [2]	MIC [3]	MIC [4]	MIC [5]	MIC [6]	MIC [7]	MIC [8]	MIC [9]	MIC [10]	MIC [11]	MIC [12]	MIC [13]	MIC [14]	MIC [15]	MIC [16]	MIC [17]	MIC [18]	MIC [19]	MIC [20]	other results
CC1Sc2c(C(=O)O)c(=O)c3cc(F)c(N4CCC(N(C)C)C4)c(F)c3n21 (stereo not drawn) [Example 36, 7-(3-Dimethylamino-1-pyrrolidinyl)-6,8-difluoro-1-methyl-4-oxo-1H,4H-[1,3]thiazeto[3,2-a]quinoline-3-carboxylic acid]	0.025 µg/mL (≈ 0.0632 µM)	6.25 µg/mL (≈ 15.8 µM)	12.5 µg/mL (≈ 31.6 µM)	0.78 µg/mL (≈ 1.97 µM)	0.78 µg/mL (≈ 1.97 µM)	0.1 µg/mL (≈ 0.253 µM)	0.2 µg/mL (≈ 0.506 µM)	100 µg/mL (≈ 253 µM)	0.78 µg/mL (≈ 1.97 µM)	50 µg/mL (≈ 126 µM)	25 µg/mL (≈ 63.2 µM)	6.25 µg/mL (≈ 15.8 µM)	0.78 µg/mL (≈ 1.97 µM)	0.78 µg/mL (≈ 1.97 µM)	3.13 µg/mL (≈ 7.92 µM)	12.5 µg/mL (≈ 31.6 µM)	0.2 µg/mL (≈ 0.506 µM)	0.78 µg/mL (≈ 1.97 µM)	0.2 µg/mL (≈ 0.506 µM)	0.2 µg/mL (≈ 0.506 µM)	MIC [21]: 1.56 µg/mL (≈ 3.95 µM); MIC ([22]; 10^6 cfu/ml, clinically isolated strain, Gram +, 18 hrs at 37° C, read-out: MIC): 6.25 µg/mL (≈ 15.8 µM); MIC [23]: 0.2 µg/mL (≈ 0.506 µM); MIC [24]: 0.1 µg/mL (≈ 0.253 µM); MIC [25]: 0.78 µg/mL (≈ 1.97 µM); MIC [26]: 12.5 µg/mL (≈ 31.6 µM); MIC [27]: 25 µg/mL (≈ 63.2 µM)
CC1Sc2c(C(=O)O)c(=O)c3cc(F)c(N4CC[C@H](N(C)C)C4)c(F)c3n21 (stereo partly drawn) [Example 37, 7-((S)-3-Dimethylamino-1-pyrrolidinyl)-6,8-difluoro-1-methyl-4-oxo-1H,4H-[1,3]thiazeto[3,2-a]quinoline-3-carboxylic acid]	0.05 µg/mL (≈ 0.126 µM)	3.13 µg/mL (≈ 7.92 µM)	12.5 µg/mL (≈ 31.6 µM)	1.56 µg/mL (≈ 3.95 µM)	0.78 µg/mL (≈ 1.97 µM)	0.2 µg/mL (≈ 0.506 µM)	0.2 µg/mL (≈ 0.506 µM)	100 µg/mL (≈ 253 µM)	0.78 µg/mL (≈ 1.97 µM)	50 µg/mL (≈ 126 µM)	25 µg/mL (≈ 63.2 µM)	12.5 µg/mL (≈ 31.6 µM)	1.56 µg/mL (≈ 3.95 µM)	0.78 µg/mL (≈ 1.97 µM)	3.13 µg/mL (≈ 7.92 µM)	12.5 µg/mL (≈ 31.6 µM)	0.2 µg/mL (≈ 0.506 µM)	0.78 µg/mL (≈ 1.97 µM)	0.2 µg/mL (≈ 0.506 µM)	0.2 µg/mL (≈ 0.506 µM)	MIC [21]: 3.13 µg/mL (≈ 7.92 µM); MIC ([22]; 18 h): 6.25 µg/mL (≈ 15.8 µM); MIC [23]: 0.39 µg/mL (≈ 0.986 µM); MIC [24]: 0.1 µg/mL (≈ 0.253 µM); MIC [25]: 0.78 µg/mL (≈ 1.97 µM); MIC [26]: 25 µg/mL (≈ 63.2 µM); MIC [27]: 25 µg/mL (≈ 63.2 µM)
CC1Sc2c(C(=O)O)c(=O)c3cc(F)c(N4CCNCC4)c(F)c3n21 (stereo not drawn) [Reference Drug C, 6,8-difluoro-1-methyl-4-oxo-7-(1-piperazinyl)-1H,4H-[1,3]thiazeto[3,2-a]quinoline-3-carboxylic acid, reference compound]	–	–	–	–	–	–	–	–	–	–	–	–	–	–	–	–	–	–	–	–	Number of convulsion induced/Number of animals ([28]; 100 mg/kg (i.p.)): 6/6
CC1Sc2c(C(=O)O)c(=O)c3cc(F)c(N4CCC(N)C4)cc3n21 (stereo not drawn) [Reference Drug D, 7-(3-amino-1-pyrrolidinyl)-6-fluoro-1-methyl-4-oxo-1H,4H-[1,3]thiazeto[3,2-a]quinoline-3-carboxylic acid, reference compound]	–	–	–	–	–	–	–	–	–	–	–	–	–	–	–	–	–	–	–	–	Number of convulsion induced/Number of animals ([28]; 100 mg/kg (i.p.)): 0/6; Number of convulsion induced/Number of animals ([28]; 300 mg/kg (i.p.)): 0/6

Reference: US5126337A, “Thiazetoquinoline-3-carboxylic acid derivative and a pharmaceutical composition comprising the same” (priority 1989, dated 1992)
